Structures can show the parent of a compound that is named as a salt.
What was measured:
mexB (PA) strain = test: Combinational effect with antibacterial agent against Pseudomonas aeruginosa (Test Examples 2 and 4): mexB (PA) strain with LVFX, TC or AZT at 1/4 MIC, EC99; assay type: cell-based; settings: for EC99, combinational effect with AZT, mexB (PA) / EC99, combinational effect with LVFX, mexB (PA) / EC99, combinational effect with TC, mexB (PA): mexB (PA) strain, Test Example 4; for EC99, combinational effect with AZT, mexB (PA) / EC99, mexB (PA), AZT: combined with AZT at 1/4 MIC; for EC99, combinational effect with LVFX, mexB (PA) / EC99, mexB (PA), LVFX: combined with LVFX at 1/4 MIC; for EC99, combinational effect with TC, mexB (PA) / EC99, mexB (PA), TC: combined with TC at 1/4 MIC; for EC99, mexB (PA), AZT / EC99, mexB (PA), LVFX / EC99, mexB (PA), TC: Table 52, Test Example 2, 16 to 20 hours culture, OD595
Outline: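 P. aeruginosa mexB (PA) strain, lacking MexCD-OprJ, MexEF-OprN and MexXY and overexpressing MexAB-OprM, grown 16–20 h in CAMHB (10^4–5 CFU/well) with LVFX, TC or AZT at ¼ MIC plus test compound at 0–800 μM. Growth read as OD595; EC99 is the lowest compound concentration giving ≥99% growth inhibition.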

S-3769 strain = test: Combinational effect with antibacterial agent against Pseudomonas aeruginosa (Test Examples 2 and 4): S-3769 strain with AMK or GM at 1/4 MIC, EC99; assay type: cell-based; settings: for EC99, combinational effect with AMK, S-3769 strain / EC99, S-3769 strain, AMK: combined with AMK at 1/4 MIC; for EC99, combinational effect with AMK, S-3769 strain / EC99, combinational effect with GM, S-3769 strain: Test Example 4; for EC99, combinational effect with GM, S-3769 strain / EC99, S-3769 strain, GM: combined with GM at 1/4 MIC; for EC99, S-3769 strain, AMK / EC99, S-3769 strain, GM: Table 52, Test Example 2, 16 to 20 hours culture, OD595
Outline: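 P. aeruginosa S-3769 (clinical isolate, MexY overexpressed) grown 16–20 h in CAMHB, 10^4 to 5 CFU/well, with AMK or GM at ¼ MIC plus test compound 0–800 μM. Growth read as OD595; EC99 is the lowest compound concentration giving ≥99% growth inhibition.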

CCOc1cccc(F)c1CN1CCN(C(=O)[C@H](N)C2CCN(CCc3cc(Cl)ccc3-c3cccc(O)c3Cl)CC2)CC1 [Example 571, (R)-2-amino-2-(1-(2-(2′,4-dichloro-3′-hydroxy-[1,1′-biphenyl]-2-yl)ethyl)piperidin-4-yl)-1-(4-(2-ethoxy-6-fluorobenzyl)piperazin-1-yl)ethan-1-one]
EC99, combinational effect with AZT, mexB (PA) (mexB (PA) strain): S (EC99≤12.5 μM) | EC99, combinational effect with LVFX, mexB (PA) (mexB (PA) strain): S (EC99≤12.5 μM) | EC99, combinational effect with TC, mexB (PA) (mexB (PA) strain): S (EC99≤12.5 μM) | EC99, combinational effect with AMK, S-3769 strain (S-3769 strain): S (EC99≤12.5 μM) | EC99, combinational effect with GM, S-3769 strain (S-3769 strain): S (EC99≤12.5 μM)

CCOc1cccc(F)c1CN1CCN(C(=O)[C@H](N)C2CCN(CCc3cc(OC(F)(F)F)ccc3-c3ccccc3Cl)CC2)CC1 [Example 86, Hydrobromide of (R)-2-amino-2-(1-(2-(2′-chloro-4-(trifluoromethoxy)-[1,1′-biphenyl]-2-yl)ethyl)piperidin-4-yl)-1-(4-(2-ethoxy-6-fluorobenzyl)piperazin-1-yl)ethan-1-one]
EC99, mexB (PA), AZT (mexB (PA) strain): B (25 μM<EC99≤100 μM) | EC99, mexB (PA), LVFX (mexB (PA) strain): B (25 μM<EC99≤100 μM) | EC99, mexB (PA), TC (mexB (PA) strain): B (25 μM<EC99≤100 μM) | EC99, S-3769 strain, AMK (S-3769 strain): B (25 μM<EC99≤100 μM) | EC99, S-3769 strain, GM (S-3769 strain): B (25 μM<EC99≤100 μM)

CCOc1ccc(O)c(F)c1CN1CCN(C(=O)[C@H](N)C2CCN(CCc3ccccc3)CC2)CC1 [Example 94, hydrobromide of (R)-2-amino-1-(4-(6-ethoxy-2-fluoro-3-hydroxybenzyl)piperazin-1-yl)-2-(1-phenethylpiperidin-4-yl)ethan-1-one]
EC99, mexB (PA), AZT (mexB (PA) strain): C (100 μM<EC99) | EC99, mexB (PA), LVFX (mexB (PA) strain): C (100 μM<EC99) | EC99, mexB (PA), TC (mexB (PA) strain): C (100 μM<EC99) | EC99, S-3769 strain, AMK (S-3769 strain): B (25 μM<EC99≤100 μM) | EC99, S-3769 strain, GM (S-3769 strain): B (25 μM<EC99≤100 μM)

CCOc1cccc(F)c1CN1CCN(C(=O)[C@H](N)C2CCN(CCc3cccc4ccccc34)CC2)CC1 [Example 42]
EC99, mexB (PA), AZT (mexB (PA) strain): B (25 μM<EC99≤100 μM) | EC99, mexB (PA), LVFX (mexB (PA) strain): B (25 μM<EC99≤100 μM) | EC99, mexB (PA), TC (mexB (PA) strain): B (25 μM<EC99≤100 μM) | EC99, S-3769 strain, AMK (S-3769 strain): S (EC99≤12.5 μM) | EC99, S-3769 strain, GM (S-3769 strain): S (EC99≤12.5 μM)

CSc1cccc(O)c1CN1CCN(C(=O)[C@H](N)C2CCN(CCc3cc(Cl)ccc3-c3ccccc3)CC2)CC1 [Example 590, Hydrochloride of (R)-2-amino-2-(1-(2-(4-chloro-[1,1-biphenyl]-2-yl)ethyl)piperidin-4-yl)-1-(4-(2-hydroxy-6-(methylthio)benzyl)piperazin-1-yl) ethan-1-one]
EC99, combinational effect with AZT, mexB (PA) (mexB (PA) strain): S (EC99≤12.5 μM) | EC99, combinational effect with LVFX, mexB (PA) (mexB (PA) strain): S (EC99≤12.5 μM) | EC99, combinational effect with TC, mexB (PA) (mexB (PA) strain): S (EC99≤12.5 μM) | EC99, combinational effect with AMK, S-3769 strain (S-3769 strain): A (12.5 μM<EC99≤25 μM) | EC99, combinational effect with GM, S-3769 strain (S-3769 strain): A (12.5 μM<EC99≤25 μM)

CCSc1cc(F)ccc1CN1CCN(C(=O)[C@H](N)C2CCN(CCc3cc(Cl)ccc3-c3ccccc3O)CC2)CC1 [Example 594, Hydrochloride of (R)-2-amino-2-(1-(2-(4-chloro-2′-hydroxy-[1,1-biphenyl]-2-yl)ethyl)piperidin-4-yl)-1-(4-(2-(ethylthio)-4-fluorobenzyl)piperazin-1-yl) ethan-1-one]
EC99, combinational effect with AZT, mexB (PA) (mexB (PA) strain): S (EC99≤12.5 μM) | EC99, combinational effect with LVFX, mexB (PA) (mexB (PA) strain): A (12.5 μM<EC99≤25 μM) | EC99, combinational effect with TC, mexB (PA) (mexB (PA) strain): S (EC99≤12.5 μM) | EC99, combinational effect with AMK, S-3769 strain (S-3769 strain): S (EC99≤12.5 μM) | EC99, combinational effect with GM, S-3769 strain (S-3769 strain): A (12.5 μM<EC99≤25 μM)

N[C@@H](C(=O)N1CCN(Cc2cccc3c2OCCC3)CC1)C1CCN(CCc2cc(Cl)ccc2-c2ccccc2)CC1 [Example 10, Hydrobromide of (R)-2-amino-2-(1-(2-(4-chloro-[1,1′-biphenyl]-2-yl)ethyl)piperidin-4-yl)-1-(4-(chroman-8-ylmethyl)piperazin-1-yl)ethan-1-one]
EC99, mexB (PA), AZT (mexB (PA) strain): A (12.5 μM<EC99≤25 μM) | EC99, mexB (PA), LVFX (mexB (PA) strain): A (12.5 μM<EC99≤25 μM) | EC99, mexB (PA), TC (mexB (PA) strain): A (12.5 μM<EC99≤25 μM) | EC99, S-3769 strain, AMK (S-3769 strain): A (12.5 μM<EC99≤25 μM) | EC99, S-3769 strain, GM (S-3769 strain): A (12.5 μM<EC99≤25 μM)

N[C@@H](C(=O)N1CCN(Cc2ccccc2B(O)O)CC1)C1CCN(CCc2cc(Cl)ccc2-c2ccccc2)CC1 [Example 521, Hydrobromide of (R)-(2-((4-(2-amino-2-(1-(2-(4-chloro-[1,1-biphenyl]-2-yl)ethyl)piperidin-4-yl)acetyl)piperazin-1-yl)methyl)phenyl)boronic acid]
EC99, combinational effect with AZT, mexB (PA) (mexB (PA) strain): C (100 μM<EC99) | EC99, combinational effect with LVFX, mexB (PA) (mexB (PA) strain): C (100 μM<EC99) | EC99, combinational effect with TC, mexB (PA) (mexB (PA) strain): C (100 μM<EC99) | EC99, combinational effect with AMK, S-3769 strain (S-3769 strain): B (25 μM<EC99≤100 μM) | EC99, combinational effect with GM, S-3769 strain (S-3769 strain): B (25 μM<EC99≤100 μM)

CCOc1cccc(F)c1CN1CCN(C(=O)[C@H](N)C2CCN(CCc3cc(Cl)ccc3-c3cccs3)CC2)CC1 [Example 72, Hydrobromide of (R)-2-amino-2-(1-(5-chloro-2-(thiophen-2-yl)phenethyl)piperidin-4-yl)-1-(4-(2-ethoxy-6-fluorobenzyl)piperazin-1-yl)ethan-1-one]
EC99, mexB (PA), AZT (mexB (PA) strain): B (25 μM<EC99≤100 μM) | EC99, mexB (PA), LVFX (mexB (PA) strain): C (100 μM<EC99) | EC99, mexB (PA), TC (mexB (PA) strain): B (25 μM<EC99≤100 μM) | EC99, S-3769 strain, AMK (S-3769 strain): S (EC99≤12.5 μM) | EC99, S-3769 strain, GM (S-3769 strain): S (EC99≤12.5 μM)

N[C@@H](C(=O)N1CCN(Cc2cccc3c2OCCO3)CC1)C1CCN(CCc2cc(Cl)ccc2-c2ccccc2)CC1 [Example 37, Hydrobromide of (R)-2-amino-2-(1-(2-(4-chloro-[1,1′-biphenyl]-2-yl)ethyl)piperidin-4-yl)-1-(4-((2,3-dihydrobenzo[b] [1,4]dioxin-5-yl)methyl)piperazin-1-yl) ethan-1-one]
EC99, mexB (PA), AZT (mexB (PA) strain): B (25 μM<EC99≤100 μM) | EC99, mexB (PA), LVFX (mexB (PA) strain): C (100 μM<EC99) | EC99, mexB (PA), TC (mexB (PA) strain): B (25 μM<EC99≤100 μM) | EC99, S-3769 strain, AMK (S-3769 strain): B (25 μM<EC99≤100 μM) | EC99, S-3769 strain, GM (S-3769 strain): B (25 μM<EC99≤100 μM)

CSc1ccccc1CN1CCN(C(=O)[C@H](N)C2CCN(CCc3cc(Cl)ccc3C3=CCCNC3)CC2)CC1 [Example 553, Hydrobromide of (R)-2-amino-2-(1-(5-chloro-2-(1,2,5,6-tetrahydropyridin-3-yl)phenethyl)piperidin-4-yl)-1-(4-(2-(methylthio)benzyl)piperazin-1-yl)ethan-1-one]
EC99, combinational effect with AZT, mexB (PA) (mexB (PA) strain): A (12.5 μM<EC99≤25 μM) | EC99, combinational effect with LVFX, mexB (PA) (mexB (PA) strain): S (EC99≤12.5 μM) | EC99, combinational effect with TC, mexB (PA) (mexB (PA) strain): S (EC99≤12.5 μM) | EC99, combinational effect with AMK, S-3769 strain (S-3769 strain): S (EC99≤12.5 μM) | EC99, combinational effect with GM, S-3769 strain (S-3769 strain): S (EC99≤12.5 μM)

CCOc1ccc(O)c(F)c1CN1CCN(C(=O)[C@H](N)C2CCN(CCc3cc(Cl)ccc3-c3ccccc3)CC2)CC1 [Example 104, hydrochloride of (R)-2-amino-2-(1-(2-(4-chloro-[1,1′-biphenyl]-2-yl)ethyl)piperidin-4-yl)-1-(4-(6-ethoxy-2-fluoro-3-hydroxybenzyl)piperazin-1-yl)ethan-1-one]
EC99, mexB (PA), AZT (mexB (PA) strain): A (12.5 μM<EC99≤25 μM) | EC99, mexB (PA), LVFX (mexB (PA) strain): B (25 μM<EC99≤100 μM) | EC99, mexB (PA), TC (mexB (PA) strain): A (12.5 μM<EC99≤25 μM) | EC99, S-3769 strain, AMK (S-3769 strain): S (EC99≤12.5 μM) | EC99, S-3769 strain, GM (S-3769 strain): S (EC99≤12.5 μM)

N[C@@H](C(=O)N1CCN(Cc2cccc3c2OCO3)CC1)C1CCN(CCc2cc(Cl)ccc2-c2ccccc2)CC1 [Example 36, Hydrobromide of (R)-2-amino-1-(4-(benzo[d][1,3]dioxol-4-ylmethyl)piperazin-1-yl)-2-(1-(2-(4-chloro-[1,1′-biphenyl]-2-yl)ethyl)piperidin-4-yl) ethan-1-one]
EC99, mexB (PA), AZT (mexB (PA) strain): B (25 μM<EC99≤100 μM) | EC99, mexB (PA), LVFX (mexB (PA) strain): C (100 μM<EC99) | EC99, mexB (PA), TC (mexB (PA) strain): B (25 μM<EC99≤100 μM) | EC99, S-3769 strain, AMK (S-3769 strain): B (25 μM<EC99≤100 μM) | EC99, S-3769 strain, GM (S-3769 strain): B (25 μM<EC99≤100 μM)
